# Source: US20230295197A1, “STAT5 and STAT6 Degraders and Uses Thereof” (REGENTS OF THE UNIVERSITY OF MICHICAN, priority 2022, published 2023)
# Like-named read-outs stand apart in the source and are kept apart here. *1 amine or outer side, *2 acyl side, *3 side chain or, on linkers, in order; H or OH if unused. Where a SMILES comes first, the peptide text is derived from it. [ ]: non-standard residue; d: D form. The star is where a group is joined. Benzothienyl2CO(5-CF2PO3H2) = O=C(c1cc2cc(C(F)(F)P(=O)(O)O)ccc2s1)*; βAla(N-(4-Br-phenyl)) = O=C(CCN(c1ccc(Br)cc1)[*:1])[*:2]; NHBn(4-(4-Me-thiazol-5-yl)) = Cc1ncsc1-c1ccc(CN*)cc1; Hyp = O=C(O)[C@@H]1C[C@@H](O)CN1; Tle = CC(C)(C)[C@H](N)C(=O)O; Ahp = NCCCCCCC(=O)O
# Molecular target: T1, STAT6 (Homo sapiens, UniProt P42226)
# T1 construct: endogenous in cells; host or cells: MOLM-16, KU-812, SKNO1, MB231, L1236
# T1 sequence (P42226 1-847): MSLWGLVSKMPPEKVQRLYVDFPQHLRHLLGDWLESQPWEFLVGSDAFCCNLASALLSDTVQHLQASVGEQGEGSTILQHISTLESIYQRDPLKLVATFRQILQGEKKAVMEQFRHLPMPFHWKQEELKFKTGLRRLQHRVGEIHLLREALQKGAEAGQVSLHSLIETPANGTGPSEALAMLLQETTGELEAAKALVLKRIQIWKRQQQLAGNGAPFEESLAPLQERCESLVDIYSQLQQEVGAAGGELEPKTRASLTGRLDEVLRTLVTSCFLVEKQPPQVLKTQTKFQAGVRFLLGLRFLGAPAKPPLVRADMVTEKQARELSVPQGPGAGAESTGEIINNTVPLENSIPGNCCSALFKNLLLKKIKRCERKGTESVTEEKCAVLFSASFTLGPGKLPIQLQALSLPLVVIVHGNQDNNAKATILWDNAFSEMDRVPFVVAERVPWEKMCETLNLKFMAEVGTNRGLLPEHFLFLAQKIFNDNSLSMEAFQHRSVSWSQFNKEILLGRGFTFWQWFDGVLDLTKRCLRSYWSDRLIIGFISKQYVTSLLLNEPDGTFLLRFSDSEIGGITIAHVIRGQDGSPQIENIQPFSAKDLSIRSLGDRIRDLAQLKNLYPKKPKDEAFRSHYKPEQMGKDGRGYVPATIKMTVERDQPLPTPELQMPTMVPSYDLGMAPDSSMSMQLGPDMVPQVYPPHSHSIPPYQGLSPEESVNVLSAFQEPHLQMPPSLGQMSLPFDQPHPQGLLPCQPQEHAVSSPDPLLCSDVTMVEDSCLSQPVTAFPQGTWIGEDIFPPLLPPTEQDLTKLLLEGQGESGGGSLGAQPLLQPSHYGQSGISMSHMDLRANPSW
# Assay: Immunoblotting (Western blot) analysis of STAT6 degradation efficiency of degraders in treated cells
# Assay type: cell-based
# In short: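 Protein levels of STAT5 and STAT6 were assessed in cells cultured at 37 °C in 10% FBS medium after compound exposure, by quantitative fluorescent Western blotting normalised to equal loading and referenced to GAPDH.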
# [1] = L1236 cells, read-out: DC50 S6 L1236
# [2] = MOLM-16 cells, class symbols, read-out: DC50 S6 MOLM-16
Compound,DC50 [2] [µM],DC50 [1] [µM],"DC50 (read-out: DC50 S6 MB231, MB231 cells) [µM]"
"Cc1ncsc1-c1ccc([C@H](C)NC(=O)[C@@H]2C[C@@H](O)CN2C(=O)[C@H](NC(=O)CNC(=O)CO[C@H]2C[C@@H](C(=O)N3CCO[C@H](c4ccccc4)C3)N(C(=O)[C@@H](NC(=O)c3cc4cc(C(F)(F)P(=O)(O)O)ccc4s3)C(C)(C)C)C2)C(C)(C)C)cc1 [Compound 425, (difluoro(2-(((S)-1-((2S,4S)-4-(2-((2-(((R)-1-((2S,4R)-4-hydroxy-2-(((S)-1-(4-(4-methylthiazol-5-yl)phenyl)ethyl)carbamoyl)pyrrolidin-1-yl)-3,3-dimethyl-1-oxobutan-2-yl)amino)-2-oxoethyl)amino)-2-oxoethoxy)-2-((R)-2-phenylmorpholine-4-carbonyl)pyrrolidin-1-yl)-3,3-dimethyl-1-oxobutan-2-yl)carbamoyl)benzo[b]thiophen-5-yl)methyl)phosphonic acid]",> 10,> 10,–
Cc1ncsc1-c1ccc(CNC(=O)[C@@H]2C[C@@H](O)CN2C(=O)[C@@H](NC(=O)CCCCCCNC(=O)CCN(C(=O)[C@@H]2CCCN2C(=O)[C@@H](NC(=O)c2cc3cc(C(F)(F)P(=O)(O)O)ccc3s2)C(C)(C)C)c2ccc(Br)cc2)C(C)(C)C)cc1 [Compound 399] ({Benzothienyl2CO(5-CF2PO3H2)}-[Tle]P[βAla(N-(4-Br-phenyl))][Ahp][Tle][Hyp]-{NHBn(4-(4-Me-thiazol-5-yl))}),–,–,> 10
"Cc1ncsc1-c1ccc([C@H](C)NC(=O)[C@@H]2C[C@@H](O)CN2C(=O)[C@@H](NC(=O)CCNC(=O)COc2ccc3c(c2)CN(C(=O)[C@@H](NC(=O)c2cc4cc(C(F)(F)P(=O)(O)O)ccc4s2)C(C)(C)C)[C@H](C(=O)N2CCC[C@H](c4ccccc4)C2)C3)C(C)(C)C)cc1 [Compound 471, (difluoro(2-(((S)-1-((S)-7-(2-((3-(((S)-1-((2S,4R)-4-hydroxy-2-(((S)-1-(4-(4-methylthiazol-5-yl)phenyl)ethyl)carbamoyl)pyrrolidin-1-yl)-3,3-dimethyl-1-oxobutan-2-yl)amino)-3-oxopropyl)amino)-2-oxoethoxy)-3-((R)-3-phenylpiperidine-1-carbonyl)-3,4-dihydroisoquinolin-2(1H)-yl)-3,3-dimethyl-1-oxobutan-2-yl)carbamoyl)benzo[b]thiophen-5-yl)methyl)phosphonic acid]",> 10,–,–
"Cc1ncsc1-c1ccc([C@H](C)NC(=O)[C@@H]2C[C@@H](O)CN2C(=O)[C@@H](NC(=O)CCCCCCCCNC(=O)CO[C@H]2C[C@@H](C(=O)N3CCO[C@H](c4ccccc4)C3)N(C(=O)[C@@H](NC(=O)c3cc4cc(C(F)(F)P(=O)(O)O)ccc4s3)C(C)(C)C)C2)C(C)(C)C)cc1 [Compound 432, (difluoro(2-(((S)-1-((2S,4S)-4-(2-((9-(((S)-1-((2S,4R)-4-hydroxy-2-(((S)-1-(4-(4-methylthiazol-5-yl)phenyl)ethyl)carbamoyl)pyrrolidin-1-yl)-3,3-dimethyl-1-oxobutan-2-yl)amino)-9-oxononyl)amino)-2-oxoethoxy)-2-((R)-2-phenylmorpholine-4-carbonyl)pyrrolidin-1-yl)-3,3-dimethyl-1-oxobutan-2-yl)carbamoyl)benzo[b]thiophen-5-yl)methyl)phosphonic acid]",> 10,> 10,–
"CC(C)(C)[C@H](NC(=O)c1cc2cc(C(F)(F)P(=O)(O)O)ccc2s1)C(=O)N1CCN(C(=O)CC(=O)NCCC#Cc2ccc3c(c2)C(=O)N(C2CCC(=O)NC2=O)C3=O)C[C@H]1C(=O)N1CCO[C@H](c2ccccc2)C1 (stereo partly drawn) [Compound 510, ((2-(((2S)-1-((2S)-4-(3-((4-(2-(2,6-dioxopiperidin-3-yl)-1,3-dioxoisoindolin-5-yl)but-3-yn-1-yl)amino)-3-oxopropanoyl)-2-((R)-2-phenylmorpholine-4-carbonyl)piperazin-1-yl)-3,3-dimethyl-1-oxobutan-2-yl)carbamoyl)benzo[b]thiophen-5-yl)difluoromethyl)phosphonic acid]",> 10,–,–

# Further lines, with some results ahead:
DC50 [2] [µM],Compound,DC50 [1] [µM],"DC50 (read-out: DC50 S6 MB231, MB231 cells) [µM]"
> 10,"O=C1CCC(N2Cc3cc(C#CCCCCCC(=O)N4CC[C@H]5CC[C@@H](C(=O)N6CC[C@@H](c7ccccc7)C6)N5C(=O)[C@@H](NC(=O)c5cc6cc(C(F)(F)P(=O)(O)O)ccc6s5)C4)ccc3C2=O)C(=O)N1 (stereo partly drawn) [Compound 574, ((2-(((5S,8S,10aR)-3-(8-(2-(2,6-dioxopiperidin-3-yl)-1-oxoisoindolin-5-yl)oct-7-ynoyl)-6-oxo-8-((S)-3-phenylpyrrolidine-1-carbonyl)decahydropyrrolo[1,2-a][1,5]diazocin-5-yl)carbamoyl)benzo[b]thiophen-5-yl)difluoromethyl)phosphonic acid]",> 10,–
> 10,"O=C1CCC(N2Cc3cc(C#CCCCCCC(=O)N4CC[C@H]5CC[C@@H](C(=O)N6CCOC(c7ccc(F)c(Cl)c7)C6)N5C(=O)[C@@H](NC(=O)c5cc6cc(C(F)(F)P(=O)(O)O)ccc6s5)C4)ccc3C2=O)C(=O)N1 (stereo partly drawn) [Compound 575, ((2-(((5S,8S,10aR)-8-(2-(3-chloro-4-fluorophenyl)morpholine-4-carbonyl)-3-(8-(2-(2,6-dioxopiperidin-3-yl)-1-oxoisoindolin-5-yl)oct-7-ynoyl)-6-oxodecahydropyrrolo[1,2-a][1,5]diazocin-5-yl)carbamoyl)benzo[b]thiophen-5-yl)difluoromethyl)phosphonic acid]",> 10,–
> 10,"CC(C)(C)[C@H](NC(=O)c1cc2cc(C(F)(F)P(=O)(O)O)ccc2s1)C(=O)N1Cc2cc(OCC(=O)NCCCCCCCCC#Cc3cccc4c3C(=O)N(C3CCC(=O)NC3=O)C4=O)ccc2C[C@H]1C(=O)N1CCC[C@H](c2ccccc2)C1 (stereo partly drawn) [Compound 559, ((2-(((2S)-1-((3S)-7-(2-((10-(2-(2,6-dioxopiperidin-3-yl)-1,3-dioxoisoindolin-4-yl)dec-9-yn-1-yl)amino)-2-oxoethoxy)-3-((R)-3-phenylpiperidine-1-carbonyl)-3,4-dihydroisoquinolin-2(1H)-yl)-3,3-dimethyl-1-oxobutan-2-yl)carbamoyl)benzo[b]thiophen-5-yl)difluoromethyl)phosphonic acid]",–,–
> 10,"CC(C)(C)[C@H](NC(=O)c1cc2cc(C(F)(F)P(=O)(O)O)ccc2s1)C(=O)N1Cc2cc(OCC(=O)NCCCCCCCCCC#Cc3cccc4c3C(=O)N(C3CCC(=O)NC3=O)C4=O)ccc2C[C@H]1C(=O)N1CCC[C@H](c2ccccc2)C1 (stereo partly drawn) [Compound 561, ((2-(((2S)-1-((3S)-7-(2-((11-(2-(2,6-dioxopiperidin-3-yl)-1,3-dioxoisoindolin-4-yl)undec-10-yn-1-yl)amino)-2-oxoethoxy)-3-((R)-3-phenylpiperidine-1-carbonyl)-3,4-dihydroisoquinolin-2(1H)-yl)-3,3-dimethyl-1-oxobutan-2-yl)carbamoyl)benzo[b]thiophen-5-yl)difluoromethyl)phosphonic acid]",–,–
> 10,"CC(C)(C)[C@H](NC(=O)c1cc2cc(C(F)(F)P(=O)(O)O)ccc2s1)C(=O)N1C[C@@H](OCC(=O)NCCCCCCCCCC#Cc2ccc3c(c2)C(=O)N(C2CCC(=O)NC2=O)C3=O)C[C@H]1C(=O)N1CCO[C@H](c2ccccc2)C1 (stereo partly drawn) [Compound 492, ((2-(((2S)-1-((2S,4S)-4-(2-((11-(2-(2,6-dioxopiperidin-3-yl)-1,3-dioxoisoindolin-5-yl)undec-10-yn-1-yl)amino)-2-oxoethoxy)-2-((R)-2-phenylmorpholine-4-carbonyl)pyrrolidin-1-yl)-3,3-dimethyl-1-oxobutan-2-yl)carbamoyl)benzo[b]thiophen-5-yl)difluoromethyl)phosphonic acid]",–,–
